# Measurements: patent US9206124B2, “Treatment of drug-resistant cancer with 2-aryl-2-(3-indolyl) acetohydroxamates” (New Mexico Technical Research Foundation, priority 2013, dated 2015)
# “Also recorded” adds a separate entry of the source.
# What was measured:
# [1] = test system: Hs683 anaplastic oligodendroglioma cells; experiment: MTT antiproliferative assay, Hs683; format: cell-based; details: Homo sapiens, Hs 683, 48 h treatment, ± SD, apoptosis-sensitive reference, read-out: GI50 in vitro, Hs683
# Procedure: (§1) As part of the ongoing efforts aimed at identification of compounds active against cancer cells displaying resistance to proapoptotic agents, the selected 2-aryl-2-(3-indolyl)-acetohydroxamates were evaluated for in vitro growth inhibition against a panel of additional cancer cell lines including those resistant to various proapoptotic stimuli, such as human T98G and U87 glioblastoma and human A549 non-small-cell-lung cancer (NSCLC), as well as an apoptosis-sensitive tumor model, such as human Hs683 anaplastic oligodendroglioma, used as a reference. The data reveal that for the most part these compounds retain the single-digit antiproliferatve GI50 values in this challenging cancer cell panel.
# (§2) Human cancer cell lines were obtained from the American Type Culture Collection (ATCC, Manassas, Va., USA), the European Collection of Cell Culture (ECACC, Salisbury, UK) and the Deutsche Sammlung von Mikroorganismen and Zellkulturen (DSMZ, Braunschweig, Germany). Human cervical adenocarcinoma HeLa cells were cultured in DMEM supplemented with 10% fetal bovine serum (FBS). Human mammary carcinoma MCF-7 cells were cultured in RPMI supplemented with 10% FBS. The U87 cells (ATCC HTB-14) were cultured in DMEM culture medium, while the A549 cells (DSMZ ACC107) were cultured in RPMI culture medium supplemented with 10% heat-inactivated FBS. The glioblastoma multiforme Hs683 (ATCC HTB-138) and the T98G (ATCC CRL-1690) cell lines were cultivated in DMEM supplemented with 10% FBS. The Human uterine sarcoma MES-SA and MES-SA/Dx5 cells were cultured in RPMI-1640 medium supplemented with 10% FBS with MES SA/Dx5 maintained in the presence of 500 nM Doxorubicin (Sigma). SKMEL-28 cells (ATCC HTB72) and U373 glioblastoma cells (ECACC 08061901) were cultured in RPMI culture medium supplemented with 10% heat-inactivated FBS. Cell culture media were supplemented with 4 mM glutamine (Lonza code BE17-605E), 100 μg/mL gentamicin (Lonza code 17-5182), and penicillin-streptomycin (200 units/ml and 200 μg/ml) (Lonza code 17-602E). Neurosphere culture GBM 031810 was established using known methods and maintained in Neurobasal medium (Invitrogen Carlsbad, Calif.) with B27 supplement (20 ul/ml; Invitrogen), Glutamax (10 ul/ml; Invitrogen), fibroblast growth factor-2 (20 ng/ml; Peprotech, Rocky Hill, N.J., USA), epidermal growth factor (20 ng/ml; Peprotech), heparin (32 IE/ml; Sigma Aldrich, St. Louis, Mo.), and penicillin-streptomycin (1×, Invitrogen). Growth factors and heparin were renewed twice weekly. All cell lines were cultured in T25 flasks, maintained and grown at 37° C., 95% humidity, 5% CO2.
# (§3) Antiproliferative properties of the synthesized compounds were evaluated by the MTT assay. All compounds were dissolved in DMSO at a concentration of either 100 mM or 50 mM prior to cell treatment. The cells were trypsinized and seeded at 4×10^3 cells per well into 96-well plates. The cells were grown for 24 h, treated with compounds at concentrations ranging from 0.001 to 100 μM and incubated for 48 h in 200 μL media. 20 μL of MTT reagent in serum free medium (5 mg/mL) was added to each well and incubated further for 2 h. Media was removed and the resulting formazan crystals were re-solubilized in 200 μL of DMSO. A490 was measured using a Molecular Devices Thermomax plate reader. The experiments were performed in quadruplicate and repeated at least twice for each compound per cell line. Cells treated with 0.1% DMSO were used as a negative control; 1 μM phenyl arsine oxide (PAO) was used as a positive control.
# [2] = test system: HeLa cervical adenocarcinoma cells; experiment: MTT antiproliferative assay, HeLa; format: cell-based; details: Homo sapiens, Table 2, 48 h treatment, ± SD, read-out: cell viability GI50, HeLa
# Excerpt: (§4) This finding led to an exploration of the SAR analyses by synthesizing the first generation compounds 3 containing diverse substituents at different positions in the 2-aryl-2-(3-indolyl)acetohydroxamate skeleton and testing this series for in vitro growth inhibition using the MTT colorimetric assay against two cell lines, human HeLa cervical and MCF-7 breast adenocarcinomas (Table 1). It emerged from these experiments that the substitution on the benzene ring of the indole moiety (R^2≠H) was not tolerated (e.g., 3abfa and 3acfa), whereas the nitrogen could be derivatized (R^1≠H) with only a small activity drop (e.g., 3bafa vs 3aafa).
# as §2, §3
# [3] = test system: HeLa cervical and MCF-7 breast adenocarcinomas; experiment: In vitro growth inhibition (MTT); format: cell-based, human; details: HeLa and MCF-7
# Excerpt: as §4, §3
# [4] = test system: GBM 031810 neurosphere cells; experiment: Antiproliferative effect on patient-derived GBM neurosphere culture; format: cell-based; details: Homo sapiens, average IC50 ± SD from three determinations, read-out: GI50 in vitro, GBM 031810 (average IC50)
# Excerpt: Given the ability of the hydroxamates to overcome drug resistance a few select compounds were further evaluated against glioma cells grown in neurosphere conditions, which are known to promote the growth of stem-like cells from human glioma tissue. Indeed, the neurospheres show the ability of self-renewal by regrowing in culture from individual cells, and can differentiate into multiple neural lineages and recapitulate human gliomas on both histological and genetic levels more faithfully than serum cultured glioma cell lines when injected into the brains of mice. Because, neurosphere cells are generally resistant to radiation and chemotherapy, the micromolar to submicromolar activity of the hydroxamates against the glioma neurosphere cell cultures is noteworthy (Table 4). […] It is worthy of note, that the unmethylated MGMT promoter leading to such temozolomide resistance is found in about half of all GBM patients, who respond poorly to temozolomide chemotherapy. To date, no alternative treatment exists for this group of patients.
# as §2, with “Growth factors and heparin were renewed twice weekly. All cell lines were cultured in T25 flasks, maintained and grown at 37° C., 95% humidity, 5% CO2.” left out
# U87 glioblastoma cells = experiment: MTT antiproliferative assay, U87; format: cell-based, human; details: for GI50: Homo sapiens, 48 h treatment, MTT, ± SD, read-out: GI50 in vitro, U87
# Procedure: as §1, §2, §3
# [5] = test system: MES-SA uterine sarcoma cells; experiment: MTT antiproliferative assay, MES-SA; format: cell-based; details: Homo sapiens, 48 h treatment, ± SD, read-out: GI50 in vitro, MES-SA
# Procedure: Compared with the intrinsic drug resistance, as described above for such cancers as glioblastoma and melanoma, a large variety of tumors can also develop resistance to anticancer drugs resulting in MDR as explained previously. To assess whether the hydroxamates can overcome this resistance mechanism, selected hydroxamates were tested against MDR cells (Table 4). The MDR uterine sarcoma cell line MES-SA/Dx5 was utilized for this experiment. This cell line was established from the parent uterine sarcoma MES-SA, grown in the presence of increasing concentrations of doxorubicin and known to be resistant to a number of P-gp substrates. […] In contrast, there was only a small variation in the sensitivities of the two cell lines towards the hydroxamates indicating their potential to overcome clinical multi-drug resistance.
# as §2, §3
# [6] = test system: MES-SA/Dx5 MDR uterine sarcoma cells; experiment: MTT antiproliferative assay, MDR MES-SA/Dx5; format: cell-based, human; details: Homo sapiens, MES-SA/Dx5; 48 h treatment, MTT, ± SD; MDR line; read-out: GI50 in vitro, MES-SA/Dx5
# Procedure: Compared with the intrinsic drug resistance, as described above for such cancers as glioblastoma and melanoma, a large variety of tumors can also develop resistance to anticancer drugs resulting in MDR as explained previously. To assess whether the hydroxamates can overcome this resistance mechanism, selected hydroxamates were tested against MDR cells (Table 4). The MDR uterine sarcoma cell line MES-SA/Dx5 was utilized for this experiment. This cell line was established from the parent uterine sarcoma MES-SA, grown in the presence of increasing concentrations of doxorubicin and known to be resistant to a number of P-gp substrates.
# as §2, §3
# Selection of the MES-SA/Dx5 cell line was done according to W. G. Harker and B. I. Sikic, Cancer Res. 1985, p. 45, 4091. The cells were split and allowed to adhere overnight. […] The cells were maintained at this DOX concentration until their growth rate reached that of the untreated cells.
# [7] = test system: A549 non-small-cell-lung cancer cells; experiment: MTT antiproliferative assay, A549; format: cell-based, human; details: for GI50: Homo sapiens, A549, 48 h treatment, MTT, ± SD, read-out: GI50 in vitro, A549
# Procedure: as §1, §2, §3
# [8] = test system: MCF-7 breast adenocarcinoma cells; experiment: MTT antiproliferative assay, MCF-7; format: cell-based; details: Homo sapiens, MCF7, Table 2, 48 h treatment, ± SD, read-out: cell viability GI50, MCF7
# Excerpt: as §4, §2, §3
# T98G glioblastoma cells = experiment: MTT antiproliferative assay, T98G; format: cell-based; details: Homo sapiens, 48 h treatment, ± SD, read-out: GI50 in vitro, T98G
# Procedure: as §1, §2, §3
# [9] = FIG. 3, increasing concentration
GI50 [1],GI50 [2],antiproliferative potency (GI50) [3],GI50 (U87 glioblastoma cells),GI50 [5],GI50 [6],GI50 [7],GI50 [8],GI50 (T98G glioblastoma cells),Structure (SMILES),IC50 [4],"activity against cell populations resistant to proapoptotic agents, U87 (U87 glioblastoma cells; [9])","activity against cell populations resistant to proapoptotic agents, A549 [7, 9]"
10.8 ± 0.5 µM,5.6 ± 0.3 µM,single-digit micromolar,6.7 ± 0.3 µM,5.9 ± 1.7 µM,2.7 ± 0.3 µM,5.7 ± 0.5 µM,7.8 ± 0.6 µM,12.3 ± 0.8 µM,CCCCn1c(-c2ccc3ccccc3c2)c(C(C(=O)NO)c2ccccc2)c2ccccc21 (centres unmarked) [Compound 3cafa],–,–,–
11.2 ± 0.9 µM,5.4 ± 0.3 µM,single-digit micromolar,9.1 ± 0.3 µM,7.1 ± 0.1 µM,8.5 ± 0.9 µM,5.8 ± 0.8 µM,5.5 ± 0.2 µM,10.6 ± 0.4 µM,O=C(NO)C(c1ccccc1)c1c(-c2ccc3ccccc3c2)n(Cc2ccccc2)c2ccccc12 (centres unmarked) [Compound 3eafa],–,–,–

# Continued, compound first:
Structure (SMILES),GI50 [1],GI50 [2],antiproliferative potency (GI50) [3],GI50 (U87 glioblastoma cells),GI50 [5],GI50 [6],GI50 [7],GI50 [8],GI50 (T98G glioblastoma cells),IC50 [4],"activity against cell populations resistant to proapoptotic agents, U87 (U87 glioblastoma cells; [9])","activity against cell populations resistant to proapoptotic agents, A549 [7, 9]"
CC(C)c1ccc(C(C(=O)NO)c2c(-c3ccc4ccccc4c3)[nH]c3ccccc23)cc1 (centres unmarked) [Compound 3aafe],6.1 ± 1 µM,0.68 ± 0.04 µM,single-digit micromolar; also recorded: submicromolar,5 ± 0.5 µM,1.7 ± 0.4 µM,4.9 ± 1.9 µM,3.3 ± 0.6 µM,1.4 ± 0.1 µM,8.8 ± 0.5 µM,3.4 ± 0.7 µM,–,–
Cc1ccc(C(C(=O)NO)c2c(-c3ccc4ccccc4c3)[nH]c3ccccc23)cc1C (centres unmarked) [Compound 3aafk],4.7 ± 1 µM,2.7 ± 0.1 µM,single-digit micromolar,6.7 ± 1.5 µM,1.8 ± 0.4 µM,2.2 ± 0.8 µM,2.9 ± 0.6 µM,2.5 ± 0.1 µM,7.5 ± 0.8 µM,–,–,–
CN(C)c1ccc(C(C(=O)NO)c2c(-c3ccc4ccccc4c3)[nH]c3ccccc23)cc1 (centres unmarked) [Compound 3aafp],5.1 ± 0.5 µM,0.6 ± 0.02 µM,single-digit micromolar; also recorded: submicromolar,21.3 ± 1.6 µM,0.8 ± 0.1 µM,1.6 ± 0.6 µM,1.5 ± 0.3 µM,1.1 µM,1.9 ± 0.2 µM,5.6 ± 0.8 µM,potent growth inhibitory properties against most of the cells,potent growth inhibitory properties against most of the cells
"Cn1nnc2c(C(N)=O)ncn2c1=O [Temozolomide, reference compound]",–,–,–,–,–,–,–,–,–,> 1000 µM,–,–
